Structures are written as SMILES. pKi: −log10 of the molar value.

Data set [1] is described as follows: Aqueous solubility of the compound. As to conditions: aqueous medium (not further specified).
For a further data set, the target named is D(2) dopamine receptor (Rattus norvegicus, UniProt P61169). Briefly: Displacement of [3H]Spiperone from D2 receptor in Sprague-Dawley rat caudate-putamen. In kind it is tissue-based. (In general: Loss of bound radioactivity is the signal in a displacement assay; it reports binding, not function.)
D(2) dopamine receptor, sequence (P61169 whole entry): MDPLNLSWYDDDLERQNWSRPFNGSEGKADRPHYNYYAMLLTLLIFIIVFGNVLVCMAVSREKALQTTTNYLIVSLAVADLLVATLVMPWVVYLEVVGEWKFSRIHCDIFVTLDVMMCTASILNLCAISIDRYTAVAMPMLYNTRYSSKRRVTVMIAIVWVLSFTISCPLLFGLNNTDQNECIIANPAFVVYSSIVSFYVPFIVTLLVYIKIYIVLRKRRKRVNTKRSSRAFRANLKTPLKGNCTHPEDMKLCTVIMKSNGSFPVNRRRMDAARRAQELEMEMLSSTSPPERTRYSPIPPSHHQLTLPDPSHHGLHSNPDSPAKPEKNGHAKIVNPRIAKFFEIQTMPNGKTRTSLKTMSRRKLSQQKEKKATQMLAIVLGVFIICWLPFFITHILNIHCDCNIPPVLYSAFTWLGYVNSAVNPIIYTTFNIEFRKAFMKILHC
The target in the next data set is D(1A) dopamine receptor (Rattus norvegicus, UniProt P18901). Briefly: Displacement of [3H]SCH23390 from D1-like receptor in Sprague-Dawley rat striatum.
D(1A) dopamine receptor, sequence (P18901 whole entry): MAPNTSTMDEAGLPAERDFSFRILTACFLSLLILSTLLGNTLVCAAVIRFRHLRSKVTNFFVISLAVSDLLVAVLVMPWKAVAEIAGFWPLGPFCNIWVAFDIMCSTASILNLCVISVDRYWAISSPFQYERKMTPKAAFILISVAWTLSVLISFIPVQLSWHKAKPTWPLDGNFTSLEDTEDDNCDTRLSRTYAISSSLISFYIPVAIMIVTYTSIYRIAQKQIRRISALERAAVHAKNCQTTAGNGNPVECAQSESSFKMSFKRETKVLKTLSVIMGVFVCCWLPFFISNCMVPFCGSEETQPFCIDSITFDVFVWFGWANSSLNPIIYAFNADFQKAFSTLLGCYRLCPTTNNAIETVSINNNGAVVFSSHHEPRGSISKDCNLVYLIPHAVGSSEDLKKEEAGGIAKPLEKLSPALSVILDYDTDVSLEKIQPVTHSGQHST

As for `CCCN(CC[C@H]1CC[C@H](NC(=O)c2ccc3ccccc3c2)CC1)[C@H]1CCc2nc(N)sc2C1.Cl.Cl`, the concentration in solution in data set [1] (solubility) came to 100 mg/mL. For the compound `CCCN(CC[C@H]1CC[C@H](NC(=O)/C=C/c2ccccc2)CC1)[C@H]1CCc2nc(N)sc2C1`, the pKi (as a rule, the Ki on a negative log10 scale, so that one unit is a factor of ten) at D(2) dopamine receptor was 6.48. In the case of `CCCCN(CC[C@H]1CC[C@H](NC(=O)c2ccc3ccccc3c2)CC1)[C@H]1CCc2nc(N)sc2C1`, the negative logarithm of the Ki (pKi) at D(1A) dopamine receptor is 5.27. On the same count and under the same terms, then `CC(C)CCN(CC[C@H]1CC[C@H](NC(=O)c2ccc3ccccc3c2)CC1)[C@H]1CCc2nc(N)sc2C1`, with 4.89; and `Nc1nc2c(s1)C[C@@H](NCC[C@H]1CC[C@H](NC(=O)c3ccc4ccccc4c3)CC1)CC2`, with 4.19. `COc1ccc2c(c1)CC[C@@H]1CN(CC[C@H]3CC[C@H](NC(=O)c4ccc5ccccc5c4)CC3)CCN21`: the pKi at D(2) dopamine receptor is below 5.00; on D(1A) dopamine receptor, below 4.30.

For the compound `CCCN[C@H]1CCc2nc(N)sc2C1` [PRAMIPEXOLE], the pKi on D(1A) dopamine receptor is below 4.00.

The record behind these values is ChEMBL document CHEMBL1140107, “Design, synthesis, and evaluation of potent and selective ligands for the dopamine 3 (D3) receptor with a novel in vivo behavioral profile” (J Med Chem, 2008).
